Assay results from US5478856A, “Styrene derivatives and salts thereof” (Taiho Pharmaceutical Co., Ltd., priority 1992, dated 1995).

Tests used:
Cyclooxygenase = Cyclooxygenase inhibiting effect (prostaglandin E2 formation from 14C-arachidonic acid, seminal vesicular gland microsomes); assay type: biochemical; conditions: seminal vasicular gland microsomes, prostaglandin E2 radioactivity
Procedure: (1) Cyclooxygenase inhibiting effect
This assay was carried out by the method described in Russell J. Taylor et al., Biochem. Pharmacol., 25, 2479-2484 (1976).
^14 C-arachidonic acid was reacted with seminal vasicular gland microsomes and the test drugs at various concentrations over a predetermined period of time and the obtained prostaglandin E2 was separated by thin layer chromatography. The radioactivity of prostaglandin E2 was determined by liquid scintillation counter. The IC50 values were calculated by the comparison with the radioactivity of the control.

5-Lipoxygenase = biological target: T1, 5-Lipoxygenase (Cavia porcellus, UniProt A0A286X958); test: 5-Lipoxygenase inhibiting activity (5-hydroxyeicosatetraenoic acid formation from 14C-arachidonic acid, cytosol fraction of polymorphonuclear leucocytes); assay type: biochemical; conditions: guinea pig polymorphonuclear leucocyte cytosol, 5-hydroxyeicosatetraenoic acid radioactivity
T1 construct: the polymorphonuclear leucocytes were collected and the cytosol fraction was obtained as an enzyme source; endogenous in cells; host or cells: guinea pig peritoneal polymorphonuclear leucocytes (casein-elicited), cytosol fraction
T1 sequence (A0A286X958 1-674): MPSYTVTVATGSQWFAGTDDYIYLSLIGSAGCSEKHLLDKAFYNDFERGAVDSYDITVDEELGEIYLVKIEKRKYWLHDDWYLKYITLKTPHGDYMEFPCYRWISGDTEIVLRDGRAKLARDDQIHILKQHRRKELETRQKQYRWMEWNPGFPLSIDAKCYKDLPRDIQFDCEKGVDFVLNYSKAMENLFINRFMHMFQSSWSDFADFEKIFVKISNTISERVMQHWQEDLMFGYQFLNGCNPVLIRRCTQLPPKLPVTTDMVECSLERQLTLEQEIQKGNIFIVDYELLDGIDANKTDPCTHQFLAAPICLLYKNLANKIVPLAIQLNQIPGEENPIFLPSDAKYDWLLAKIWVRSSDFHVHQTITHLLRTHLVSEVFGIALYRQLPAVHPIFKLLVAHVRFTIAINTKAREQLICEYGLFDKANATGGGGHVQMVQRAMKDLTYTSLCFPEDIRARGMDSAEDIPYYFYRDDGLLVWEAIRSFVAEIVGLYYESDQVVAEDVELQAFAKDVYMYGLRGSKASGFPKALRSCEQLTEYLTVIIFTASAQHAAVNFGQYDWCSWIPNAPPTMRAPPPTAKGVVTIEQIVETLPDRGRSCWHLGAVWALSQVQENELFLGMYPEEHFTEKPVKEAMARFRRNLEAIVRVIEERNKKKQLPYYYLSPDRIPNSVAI
Procedure: (2) 5-Lipoxygenase inhibiting activity
This assay was carried out by the method described in Kenkichi Ochi et al., J. Biol. Chem., 258, 5754-5758 (1983).
Casein was injected into the abdominal cavity of a guinea pig, and the polymorphonuclear leucocytes were collected and the cytosol fraction was obtained as an enzyme source. ^14 C-arachidonic acid was reacted with the enzyme and the test drug at various concentrations over a predetermined period of time. The obtained 5-hydroxyeicosatetraenoic acid was separated by thin layer chromatography and the radioactivity was determined. The IC50 values were calculated by the comparison with the radioactivity of the control.

CCOC(=O)C(=Cc1cc(OC)c(O)c(OC)c1)C(=O)NCCc1onc(-c2ccc(OC)cc2)c1-c1ccc(OC)cc1 [Compound 1]
IC50 (Cyclooxygenase): 2870 nM | IC50 (5-Lipoxygenase): 1170 nM

COc1ccc(-c2noc(CCNC(=O)C(C#N)=Cc3cc(OC)c(O)c(OC)c3)c2-c2ccc(OC)cc2)cc1 [Compound 2]
IC50 (Cyclooxygenase): 4050 nM | IC50 (5-Lipoxygenase): 650 nM

COCC(=Cc1cc(OC)c(O)c(OC)c1)C(=O)NCCc1onc(-c2ccc(OC)cc2)c1-c1ccc(OC)cc1 [Compound 3]
IC50 (Cyclooxygenase): 1200 nM | IC50 (5-Lipoxygenase): 300 nM

CCCC(=Cc1cc(OC)c(O)c(OC)c1)C(=O)NCCc1onc(-c2ccc(OC)cc2)c1-c1ccc(OC)cc1 [Compound 4]
IC50 (Cyclooxygenase): 950 nM | IC50 (5-Lipoxygenase): 180 nM

COc1ccc(-c2noc(CCNC(=O)C(=Cc3cc(OC)c(O)c(OC)c3)c3ccccn3)c2-c2ccc(OC)cc2)cc1 [Compound 6]
IC50 (Cyclooxygenase): 1380 nM | IC50 (5-Lipoxygenase): 620 nM

COc1ccc(-c2noc(CCNC(=O)C(=Cc3cc(OC)c(O)c(OC)c3)c3cccs3)c2-c2ccc(OC)cc2)cc1 [Compound 7]
IC50 (Cyclooxygenase): 170 nM | IC50 (5-Lipoxygenase): 80 nM

COc1ccc(-c2noc(CCNC(=O)C(=Cc3cc(OC)c(O)c(OC)c3)C(=O)N(C)C)c2-c2ccc(OC)cc2)cc1 [Compound 8]
IC50 (Cyclooxygenase): 4760 nM | IC50 (5-Lipoxygenase): 260 nM

COc1ccc(-c2noc(CCNC(=O)C(C#N)=CC=Cc3cc(OC)c(O)c(OC)c3)c2-c2ccc(OC)cc2)cc1 [Compound 11]
IC50 (Cyclooxygenase): 680 nM | IC50 (5-Lipoxygenase): 240 nM

COc1ccc(-c2noc(CCNC(=O)C(=Cc3cc(OC)c(O)c(OC)c3)NC(C)=O)c2-c2ccc(OC)cc2)cc1 [Compound 18]
IC50 (Cyclooxygenase): 110 nM | IC50 (5-Lipoxygenase): 180 nM

COc1ccc(-c2noc(C(C#N)=Cc3cc(OC)c(O)c(OC)c3)c2-c2ccc(OC)cc2)cc1 [Compound 20]
IC50 (Cyclooxygenase): 1850 nM | IC50 (5-Lipoxygenase): 240 nM

COc1ccc(-c2noc(CCN(CC(=O)O)C(=O)C=CC=Cc3cc(OC)c(O)c(OC)c3)c2-c2ccc(OC)cc2)cc1 [Compound 23]
IC50 (Cyclooxygenase): 2940 nM | IC50 (5-Lipoxygenase): 90 nM
